US20230310427A1, “NEW THERAPEUTIC USE OF RILPIVIRINE” (UNIVERSITY OF SOUTH AUSTRALIA, priority 2020, published 2023)

What was measured:
Format in all cases: cell-based
[1] = system: cleavage of PARP in p53 WT A2780 cells; assay: Western blot, PARP cleavage; conditions: 48 hour treatments, various concentrations
Description: (§1) For Western blotting, cells (8×10^5) were seeded in a culture dish with 10 mL medium and incubated overnight at 37° C., 5% CO2. Untreated and compound-treated cells were lysed using phosphate lysis buffer and protease inhibitors. The protein concentration of each sample was determined by Bio-Rad DC™ protein assay (Bio-Rad Laboratories, Hercules, CA, United States of America). The protein was deactivated at 95° C. for 5 min and then resolved on 4-20% polyacrylamide gels by electrophoresis. Proteins were transferred to polyvinylidene difluoride (PDVF) membrane and blocked for 1 h with 10% skimmed milk (SM) in Tris-buffered saline and Tween (TBST). After adding primary antibody, the membranes were incubated overnight on a rocker in a 4° C. cold room. The following day, membranes were washed in TBST (4×20 min), incubated for at least 1 h at room temperature with the appropriate horseradish peroxidase conjugated secondary antibody. Following this, the blots were washed with TBST (4×20 min) again. The blots were then treated with Western blotting detection reagent and the band intensity was determined using a Bio-Rad ChemiDoc™ MP imaging system (Bio-Rad Laboratories). All the antibodies used for protein detection were from Cell Signaling Technology (Danvers, MA, United States of America). […]

[2] = system: bc1-2; assay: Western blot of cell lysates, apoptosis markers; conditions: increasing concentrations; data not shown
Description: as §1

[3] = system: cleaved PARP (poly (ADP-ribose) polymerase); assay: Western blot of cell lysates, apoptosis markers; conditions: increasing concentrations; data not shown
Description: as §1

[4] = system: cyclin D1 mRNA in A2780 cells; assay: RT-qPCR; conditions: 24 hours
Description: (§2) The expression of different genes at the mRNA level was assayed by RT-qPCR. Briefly, cells (1×10^6) were seeded in 10 cm tissue culture plates and treated with compounds after having been cultured overnight at 37° C., 5% CO2. RNA was extracted using the High Pure RNA Isolation Kit (Roche Applied Science, Castle Hill, NSW, Australia) according to the manufacturer’s instructions. The concentration of RNA in each sample was determined using a NanoDrop® ND1000 spectrophotometer (ThermoFisher Scientific, Waltham, MA, United States of America). 1 µg of RNA was used in a 20 µL reverse transcription reaction using a Transcriptor First Strand cDNA Synthesis Kit (Roche Applied Science). RT-qPCR was completed using duplicate samples with cDNA using SYBR Green I dye (Roche Applied Science) and performed using Light Cycler LC96 (Roche Applied Science, Penzberg, Germany). GAPDH mRNA was used as a reference sequence and data was analysed using Bio-Rad CFX manager version 3.1.

[5] = system: p53 mRNA in A2780 cells; assay: RT-qPCR; conditions: 24 hours
Description: as §2

[6] = system: A2780 cells; assay: Colony formation assay; conditions: data not shown
Description: A total of 1000-1500 cells/well were plated on a 6 well plate and allowed to adhere for 6-8 hours. Appropriate concentrations of Rilpivirine were added and then the cells were put back into the incubator for 7-14 days. The medium was changed every 3 days. After the incubation, the cells were washed with 1 ml PBS carefully. Cells were then fixed with 1 % Formaldehyde and stained with crystal violet. Colonies were counted with >50 cells by eye and images were taken using a camera fitted with microscope.

Cc1cc(/C=C/C#N)cc(C)c1Nc1ccnc(Nc2ccc(C#N)cc2)n1 [Rilpivirine, 4-[[4-[4-[(E)-2-cyanoethenyl]-2,6-dimethylanilino]pyrimidin-2-yl]amino]benzonitrile]
cleavage of PARP [1]: apoptosis is associated with cleavage of PARP
bc1-2 level in cell lysates [2]: downregulation of bc1-2
cleaved PARP in cell lysates [3]: appearance in the cell lysates of cleaved PARP
cyclin D1 mRNA [4]: decrease in cyclin D1mRNA was observed in a dose-dependent manner
p53 mRNA expression ([5]; 20 µM): dramatic increase in p53 expression
p53 mRNA expression ([5]; increasing concentration): upregulated p53 expression
clonogenic survival [6]: clear inhibition of clonogenic survival
